We go through one compound from patent publication US8106092B2, “Treatment of solid cancers” (priority 2004, dated 2012).

Assay type in all cases: in vivo, C57BL/6 mice
Assay [1] concerns B16-OVA-specific CD8^+ T-cells. Briefly: B16-OVA-specific CD8+ T-cell responses, ex vivo ELISPOT on d12. The note with it: d12 splenocytes, responses to SVYDFFVWL, KVPRNQDWL and SIINFEKL
As for the experimental part:
FIGS. 13A to C are graphical representations showing synergistic effects between PEP005-mediated cure of primaries and DC therapy on the growth of secondary tumors and on CD8^+ T-cell induction. (A) On d−3 C57BL/6 mice where inoculated with 2×10^6 B16-OVA cells on the right flank (primary tumor) and 2×10^4 B16-OVA cells on the left flank (secondary tumor). On d0 and d1 the primary B16-OVA tumors, which has reach 30.4 mm^2+SD6 were cured with i.t. injections of 25 μg of PEP005 formulated in PEG400. On d4 and d11 mice received DC therapy using DC2.4 cells pulsed with SVYDFFVWL [SEQ ID NO:1], KVPRNQDWL [SEQ ID NO:4] and SIINFEKL [SEQ ID NO:2] peptides, and ovalbumin (n=12, PEP005+DC). […] Animal groups were established and treated as in (A) except that on d12 mice were sacrificed and splenocytes analyzed in an ex vivo ELISPOT assay for responses to SVYDFFVWL [SEQ ID NO:1], KVPRNQDWL [SEQ ID NO:4] and SIINFEKL [SEQ ID NO:2] […]
To determine whether the synergistic effect of PEP005 and DC therapies seen in […] correlated with anti-cancer CD8^+ T-cell induction, a group of animals were established and treated as described for FIG. 13A except the animals were killed on d12 and their splenocytes analyzed for B16-OVA-specific CD8^+ T-cells responses. […] In the absence of treatment no significant B16-OVA-specific CD8^+ T-cell responses were detected (FIG. 13C, Controls).

A further assay has as its system B16 lung metastases. Briefly: B16 lung metastasis model. As for the experimental part: FIG. 5 is a graphical representation showing the treatment of s.c. B16 tumors with PEP005 reduced growth B16 lung metastases. C57BL/6 mice (n=7) were injected with 10^6 B16 cells s.c. and 5×10^4 B16 cell i.v. on d−2. On dO the s.c. tumors had reached an average 21.8 mm^2+SE 2.4 and were cured with 25 μg of i.t. PEP005 formulated with PEG400. On d18 the mice were euthanazed and lung weights determined (PEP005). Control mice received only i.v. B16 and naïve mice received no tumors (n=6 per group).
The activity of PEP005-mediated cure of primary tumors was assessed in a more robust model using B16 tumors rather than B16-OVA tumors and where primary tumors and lung metastases were both established prior to PEP005 treatment. When the primary tumors had reached 21.8+SE 2.4 they were cured with i.t. PEP005 injection. […] After subtracting the weight of tumor free lungs (FIG. 5A, naïve, dotted line), this represented a reduction in lung tumor burden of over 50%.

The test system of a further assay is B16 tumors. The assay is described as follows: Example 3: topical PEP005 with DC+IL-2 and M720/B16, larger primary B16 tumors. The conditions noted are these: topical dose printed 15 μg/ml, tumors 26-30 mm^2. An excerpt:
To determine whether PEP005 treatment could synergize with (i) vaccine-induced anti-cancer CD4 T-cells/antibodies and/or (ii) vaccine-induced anti-cancer CD8^+ T-cells, topical PEP005 treatment was combined with vaccination using (i) B16 lysate emulsified in Montanide ISA 720 adjuvant (M720/B16) and (ii) DC2.4 cells sensitized with TRP-2 peptide, SVYDFFVWL [SEQ ID NO:1] and activated with LPS (DC). The latter group also received IL-2 to maintain the vaccine induced T-cells. […] This experiment sought to determine whether improvements in B16 cure rate could be achieved when sub-optimal topical PEP005 treatment was combined with other immune-based therapies. This experiment differed from that described in Example 2 in that treatment was initiated when tumors were slightly larger and the M720/B16 vaccine was given d0 not d−5, and the dose of B16 cells in that vaccine was increased 10-fold.
B16 tumors were injected 2×10^6 s.c. into C57BL/6 mice on d−3 and on dO when the tumors had reached an average size of 26-30 mm^2, the groups of animal received the following treatments. […]
PEP005+DCAL-2: PEP005 (as above) plus DC2.4 cells which were (i) sensitized with TRP-2 peptide, SVYDFFVWL [SEQ ID NO:1] […]

The structures appear in SMILES notation.

Turning to `C/C=C(/C)C(=O)O[C@H]1C(C)=C[C@]23C(=O)[C@@H](C=C(CO)[C@@H](O)[C@]12O)[C@H]1[C@@H](C[C@H]3C)C1(C)C` [PEP005, ingenol-3-angelate], in assay [1], the “B16-OVA-specific CD8+ T-cell responses” value was “about 120 spots/10^6 splenocytes”. Moreover, the “reduction in lung tumor burden” value in the assay on B16 lung metastases (after subtracting the weight of tumor free lungs, d18) is reported as “over 50%”. In the assay with B16 lung metastases (s.c. B16 primaries cured with i.t. PEP005, lung metastases established before treatment, p=0.023), the “lung weights on d18 compared to controls” value is “lighter”. In the assay on B16 tumors, the “cure of B16 tumors by topical PEP005 alone” value is listed as “did not cure most B16 tumors”.
